Assay results from US10232013B2, “Use of an antimicrobial peptide TP4 in treating a cancer” (Academia Sinica, priority 2016, dated 2019).
Counter-ions that a name gives are not always drawn.

How the values were obtained:
Format in all cases: cell-based, human
FOSB in MB231 cells = assay: FOSB induction, Western blot/immunocytochemistry, MB231; settings: for effect of inhibitor on TP4-induced FOSB induction: TNBC cells, pre-treatment prior to TP4, Western blot
Protocol: (§1) Nuclear extracts were prepared as previously described^23. Equal amounts of nuclear extract (200 μg) were used for immunoprecipitation (IP) using Dynabeads protein G (ThermoFisher Scientific), in accordance with the recommended protocol. cJUN antibody (ThermoFisher Scientific, clone C.238.2) was used for immunoprecipitation. Total cell extract preparation and Western blot were performed as previously described^23. Equal amounts of boiled lysate (20 μg of total cell extract) were separated on acrylamide gels, and then transferred to PVDF membranes. The membranes were incubated in blocking solution (0.1 M PBS, 5% non-fat milk, 0.2% Tween-20) for 1 h at room temperature (RT), and then incubated in the same solution with primary or secondary antibodies (GE Healthcare Life Science). […] Membranes were visualized with enhanced chemiluminescence (Immobilon Western Chemiluminescent HRP substrate, Merck Millipore) and detected by an imaging system (UVP, BioSpectrum™ 500). Signal intensities were determined by densitometric analysis (AlphaInnotech) using the AlphaImager program. The results were expressed as relative densitometric units (RDU) (the densitometric units of FOSB+FOSΔB divided by those of GAPDH).
The plasma membrane and mitochondria were stained by pre-incubating biotinylated-TP4 treated cells (14 μg mL^−1, 3 h) with Alexa Flour 647 dye-conjugated wheat germ agglutinin (WGA) (5 μg mL^−1) (ThermoFisher Scientific) for 10 min at 37° C. or with MitoTracker® Red CMXRos probe (200 nM) (ThermoFisher Scientific) for 45 min at 37° C. prior to cell fixation. […] The fluorescent signal (which is proportional to functional mitochondria) was quantitatively determined using Image J software. […] The fluorescent FOSB signal was quantitatively determined using Image J software. […]

MB231 (MDA-MB231) cells = assay: MTS cell viability assay, MB231; settings: MB231, inhibitor added 30 min prior to TP4, cell viability
Protocol: Cell-lines used in this study were purchased from the Bioresource Collection and Research Center (BCRC) in and the cells were cultured by the standard cell culture procedures and conditions provided by the BCRC. MB231 (BCRC 60425), MB453 (BCRC 60429), and HDF cells were cultured as previously described by Ting et al. MCF7 […] cells were maintained in α-MEM medium (ThermoFisher Scientific) supplemented with 2 mM L-glutamine, 10% FBS, 0.1 mM non-essential amino acids, 1 mM sodium pyruvate, and antibiotics (100 U mL^−1 penicillin G and […] streptomycin). M10 (BCRC 60197) cells were maintained in α-MEM medium (ThermoFisher Scientific) supplemented with 10% FBS and antibiotics. With the exception of MB231 and MB453, all cells were cultured at 37° C. with 5% CO2. For the cell viability and transfection assay, 1×10^4 cells [5×10^3 M10 cells were seeded and cultured for 48 h to allow the cells sufficient time for attachment] were seeded into the wells of a 96-well plate and cultured overnight. For the transfection assays, cells were transfected with 0.1-0.4 μg FOSB/FOSAB expression plasmid (Origene Technology Inc.) and cell viability was determined after 72 h. The transfection efficiencies (number of cells expressing eGFP/all cells) of the MB231 transfection assays were determined by observing ten randomly selected fields (from three independent transfections) of control GFP plasmid transfections under an inverted microscope (Olympus, IX71) coupled to a digital camera (Olympus DP80), using an […] (LCPlanFI 20×/0.40 Ph1). CellSens standard software (Olympus) was used for image acquisition. During the drug treatment assay, inhibitors (PD98059, BAPTA-AM, and AlP II) were added 30 min prior to TP4, and cell viability was determined at indicated time-points. Transfection was performed using LipofectAMINE™ 3000 (ThermoFisher Scientific), according to the manufacturer's recommendations. Knock-down cells were generated by transducing MB231 cells with pre-synthesized FOSB (or control) shRNA lentiviral particles (Santa Cruz Biotechnology), and selecting puromycin-resistant cells in accordance with the manufacturer's standard protocol. MB231 or M10 cells stably expressing eGFP or mOrange2 were generated through transfection with peGFP-puromycin or pmOrange2-C1 plasmid, followed by puromycin (5 μg mL^−1) or G418 (500 μg mL^−1) selection as described above.
Cell viability was quantitatively analyzed using the CellTiter-Glo® Luminescent Cell Viability Assay kit (ATP assay) and CellTiter 96® AQueous Non-Radioactive Cell Proliferation Assay kit (MTS assay) (Promega) in accordance with the manufacturer's protocol. For MTS assay, 1×10^4 cells were seeded into the wells of a 96-well plate and cultured overnight [5×10^3 M10 cells were seeded and cultured for 48 h to enable sufficient well attachment]. Cells were subsequently treated with different doses of TP4 (2.5-20 μg mL^−1) and harvested at the indicated time-points (3-24 h). Reaction mixtures (20 μL: MTS+PMS, using a ratio 20:1) were directly added to the cells, and the plates were incubated for 3 h at 37° C. Absorbance at 490 nm is directly proportional to the number of living cells in culture and was measured using a photometer (SpectraMax® i3, Molecular Devices). ATP assay was performed as previously described by Ting et al. Lactate dehydrogenase (LDH) assays were performed by quantitatively measuring cell lysis with a Cytotoxicity Detection Kit^PLUS (LDH) (Roche) in accordance with the manufacturer's protocol. The LDH standard was purchased from Cayman Chemical. Briefly, 1×10^4 cells were seeded into the wells of a 96-well plate and cultured overnight. Culture media were replaced with fresh medium containing 1% FBS and cells were subsequently treated with different doses of TP4 (2.5-20 μg mL^−1). Supernatants were harvested at 3 h. […]

FOSB in MB453 cells = assay: FOSB induction, Western blot/immunocytochemistry, MB453; settings: Western blot
Protocol: as §1, with “GAPDH). […]” for “GAPDH).”

FOSB in MCF7 cells = assay: FOSB induction, Western blot/immunocytochemistry, MCF7; settings: Western blot
Protocol: as §1, with “GAPDH). […]” for “GAPDH).”

Compound | effect of inhibitor on TP4-induced FOSB induction (FOSB in MB231 cells) | effect of inhibitor on TP4-induced TNBC cell death (MB231 (MDA-MB231) cells) | FOSB induction (FOSB in MB453 cells) | FOSB induction (FOSB in MCF7 cells) | also measured
CC(=O)OCOC(=O)CN(CC(=O)OCOC(C)=O)c1ccccc1OCCOc1ccccc1N(CC(=O)OCOC(C)=O)CC(=O)OCOC(C)=O [BAPTA/AM, 1,2-Bis(2-aminophenoxy)ethane-N,N,N,N-tetraacetic acid tetrakis(acetoxymethyl ester), reference compound] | disrupted | disrupted |  |  | 
COc1cccc(-c2cc(=O)c3ccccc3o2)c1N [PD98059, reference compound] |  | disrupted |  |  | 
CC(=O)O[C@@]12CO[C@@H]1C[C@H](O)[C@@]1(C)C(=O)[C@H](O)C3=C(C)[C@@H](OC(=O)[C@H](O)[C@@H](NC(=O)OC(C)(C)C)c4ccccc4)C[C@@](O)([C@@H](OC(=O)c4ccccc4)[C@H]21)C3(C)C [docetaxel, Docetaxel] |  |  | induced FOSB | induced FOSB | 
COc1cccc2c1C(=O)c1c(O)c3c(c(O)c1C2=O)C[C@@](O)(C(=O)CO)C[C@@H]3O[C@H]1C[C@H](N)[C@H](O)[C@H](C)O1 [doxorubicin, Doxorubicin hydrochloride] |  |  |  |  | FOSB induction (FOSB in MB231 cells; MB231 (TNBC) cells, Western blot): induced strong FOSB expression
CC(=O)O[C@H]1C(=O)[C@@]2(C)[C@H]([C@H](OC(=O)c3ccccc3)[C@]3(O)C[C@H](OC(=O)[C@H](O)[C@@H](NC(=O)c4ccccc4)c4ccccc4)C(C)=C1C3(C)C)[C@]1(OC(C)=O)CO[C@@H]1C[C@@H]2O [paclitaxel, Paclitaxel] |  |  | induced FOSB | induced FOSB | 
Autocamtide-2 related inhibitory peptide II [AIP2, reference compound] | trend towards decrease, but not complete block | partly prevented |  |  | 
